In patent US10414811B2, “Protease-resistant lipidated GLP-1 analogs” (MEDIMMUNE LIMITED, priority 2015, dated 2019):
Where two headings read alike, the source gives them in different places. Numbered stars: 1 amine (or outer) side, 2 acyl side, 3 side chain; on linkers, the order of the positions; unused ones are H or OH. Square brackets hold non-standard residues; d marks the D form. Side chains are listed from the residue outwards. Peptide text beside a SMILES is read from it. * marks the point of attachment. γGlu = O=C(O)[C@H](CCC(=O)[*:2])N[*:1]; αMeF = C[C@](N)(Cc1ccccc1)C(=O)O; αMeK = C[C@](N)(CCCCN)C(=O)O; Lauroyl = CCCCCCCCCCCC(=O)*; αMeS = C[C@](N)(CO)C(=O)O; AEEA = NCCOCCOCC(=O)O; Aib = CC(C)(N)C(=O)O

What was measured:
Assay type in all cases: cell-based
[1] = target: T1, human GLP-1 receptor (GLP-1R) (Homo sapiens, UniProt P43220); assay: cAMP assay, human GLP-1R cells
T1 construct: expressed in transfected cells
T1 sequence (P43220 24-463): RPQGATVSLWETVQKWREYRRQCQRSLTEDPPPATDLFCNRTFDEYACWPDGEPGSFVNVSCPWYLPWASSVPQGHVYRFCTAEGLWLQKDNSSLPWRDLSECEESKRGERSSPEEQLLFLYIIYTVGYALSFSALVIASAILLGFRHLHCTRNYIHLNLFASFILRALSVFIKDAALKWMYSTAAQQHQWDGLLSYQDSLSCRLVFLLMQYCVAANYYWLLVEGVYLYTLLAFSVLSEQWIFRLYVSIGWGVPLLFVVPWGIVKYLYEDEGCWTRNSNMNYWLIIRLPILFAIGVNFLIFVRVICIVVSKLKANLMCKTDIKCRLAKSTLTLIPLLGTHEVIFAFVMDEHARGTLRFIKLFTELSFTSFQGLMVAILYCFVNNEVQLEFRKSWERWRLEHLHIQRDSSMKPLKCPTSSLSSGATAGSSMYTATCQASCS
Outline: (§1)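 Peptide-stimulated cAMP measured by two-step HTRF after a 30 min room-temperature incubation with receptor-expressing cells (hGLP-1R, hGIPR at 1×10^5 cells/ml; hGCGR at 2×10^5 cells/ml). Duplicate dilutions; EC50 from 4-parameter logistic fit of % Delta F.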

[2] = target: T2, human glucagon receptor (GCGR) (Homo sapiens, UniProt P47871); assay: cAMP assay, human GCGR cells
T2 construct: expressed in transfected cells
T2 sequence (P47871 26-477): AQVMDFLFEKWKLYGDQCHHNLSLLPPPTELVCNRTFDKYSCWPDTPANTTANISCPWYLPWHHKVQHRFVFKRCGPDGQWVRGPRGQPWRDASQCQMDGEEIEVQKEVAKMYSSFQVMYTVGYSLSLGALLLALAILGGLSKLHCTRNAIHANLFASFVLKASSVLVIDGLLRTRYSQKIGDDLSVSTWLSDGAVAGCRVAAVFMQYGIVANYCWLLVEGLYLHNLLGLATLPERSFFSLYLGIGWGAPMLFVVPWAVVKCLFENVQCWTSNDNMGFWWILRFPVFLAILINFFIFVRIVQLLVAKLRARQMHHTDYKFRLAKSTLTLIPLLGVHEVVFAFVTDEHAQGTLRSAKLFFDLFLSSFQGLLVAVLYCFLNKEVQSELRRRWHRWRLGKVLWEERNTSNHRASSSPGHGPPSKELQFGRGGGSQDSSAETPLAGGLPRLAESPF
Outline: as §1

[3] = target: T3, human glucose-dependent insulinotropic peptide receptor (GIPR) (Homo sapiens, UniProt P48546); assay: cAMP assay, human GIPR cells
T3 construct: expressed in transfected cells
T3 sequence (P48546 22-466): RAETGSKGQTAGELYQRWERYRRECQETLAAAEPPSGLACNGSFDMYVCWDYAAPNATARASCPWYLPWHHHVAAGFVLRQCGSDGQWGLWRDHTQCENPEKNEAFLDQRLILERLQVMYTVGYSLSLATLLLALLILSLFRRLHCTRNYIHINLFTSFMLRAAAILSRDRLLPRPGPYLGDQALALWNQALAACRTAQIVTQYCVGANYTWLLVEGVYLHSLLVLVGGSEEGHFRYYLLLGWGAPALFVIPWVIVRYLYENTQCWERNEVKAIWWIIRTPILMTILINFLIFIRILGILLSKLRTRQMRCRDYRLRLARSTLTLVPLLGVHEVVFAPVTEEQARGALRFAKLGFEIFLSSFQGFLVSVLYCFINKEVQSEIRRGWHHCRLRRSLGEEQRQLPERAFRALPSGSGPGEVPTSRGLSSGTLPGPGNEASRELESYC
Outline: as §1

GLP-1R (INS1e assay) = target: T4, GLP-1R (INS1e assay) (Rattus norvegicus, UniProt P32301); assay: INS1e assay, cAMP activity at GLP-1R
T4 construct: endogenous in cells; host or cells: INS-1E cells
T4 sequence (P32301 22-463): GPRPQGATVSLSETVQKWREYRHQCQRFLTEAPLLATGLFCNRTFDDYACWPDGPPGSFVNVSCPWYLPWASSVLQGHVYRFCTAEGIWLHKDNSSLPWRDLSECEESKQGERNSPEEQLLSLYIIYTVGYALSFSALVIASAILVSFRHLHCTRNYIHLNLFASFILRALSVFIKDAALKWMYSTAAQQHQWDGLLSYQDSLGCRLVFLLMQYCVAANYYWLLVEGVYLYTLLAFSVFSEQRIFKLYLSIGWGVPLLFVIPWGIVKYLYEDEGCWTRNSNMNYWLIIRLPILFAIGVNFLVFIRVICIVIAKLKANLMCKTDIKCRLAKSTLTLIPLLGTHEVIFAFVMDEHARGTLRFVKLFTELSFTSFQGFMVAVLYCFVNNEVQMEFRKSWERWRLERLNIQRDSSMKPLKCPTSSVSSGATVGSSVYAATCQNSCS
Outline: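 cAMP was quantified by two-step HTRF, using anti-cAMP cryptate donor and cAMP-d2 acceptor, each diluted 1/20 in conjugate and lysis buffer. EC50 values of the synthetic peptides were derived from the cAMP readout.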

[4] = cAMP assay, first determination (n1), read-out: Primary assay EC50 GLP-1R n1
[5] = cAMP assay, second determination (n2), read-out: Primary assay EC50 GLP-1R n2
[6] = mean of n1 and n2, read-out: Mean pM GLP-1R
[7] = cAMP assay, first determination (n1), read-out: Primary assay EC50 Gluc-R (n1)
[8] = cAMP assay, second determination (n2), read-out: Primary assay EC50 Gluc-R (n2)
[9] = cAMP assay, first determination (n1), read-out: Primary assay EC50 GIP-R (n1)
[10] = cAMP assay, second determination (n2), read-out: Primary assay EC50 GIP-R (n2)
[11] = mono-lipidated peptides, mean of n1 and n2, read-out: INS1e assay EC50 Mean pM GLP-1R
[12] = mono-lipidated peptides, replicate n1, read-out: INS1e assay EC50 GLP-1R n1
[13] = mono-lipidated peptides, replicate n2, read-out: INS1e assay EC50 GLP-1R n2

Row | SMILES | EC50 [1, 4] [pM] | EC50 [1, 5] [pM] | EC50 [1, 6] [pM] | EC50 [2, 7] [nM] | EC50 [2, 8] [nM] | EC50 [3, 9] [nM] | EC50 [3, 10] [nM] | EC50 (GLP-1R (INS1e assay); [11]) [pM] | EC50 (GLP-1R (INS1e assay); [12]) [pM] | EC50 (GLP-1R (INS1e assay); [13]) [pM] | EC50 ([1]; tris-lipidated peptides, mean of n1 and n2, read-out: Primary assay EC50 Mean pM GLP-1R) [pM] | EC50 ([1]; tris-lipidated peptides, replicate n1, read-out: Primary assay EC50 GLP-1R n1) [pM] | EC50 ([1]; tris-lipidated peptides, replicate n2, read-out: Primary assay EC50 GLP-1R n2) [pM] | EC50 ([2]; tris-lipidated peptides, second replicate, read-out: Primary assay EC50 Gluc-R (n2)) [nM] | EC50 ([3]; tris-lipidated peptides, second replicate, read-out: Primary assay EC50 GIP-R (n2)) [nM] | EC50 (GLP-1R (INS1e assay); tris-lipidated peptides, mean of n1 and n2, read-out: INS1e assay EC50 Mean pM GLP-1R) [pM] | EC50 (GLP-1R (INS1e assay); tris-lipidated peptides, replicate n1, read-out: INS1e assay EC50 GLP-1R n1) [pM] | EC50 (GLP-1R (INS1e assay); tris-lipidated peptides, replicate n2, read-out: INS1e assay EC50 GLP-1R n2) [pM]
1 | CCCCCCCCCCCC(=O)N[C@@H](CCC(=O)N[C@@H](CCC(=O)N[C@@H](CCC(=O)NCCCC[C@H](NC(=O)[C@@H](NC(=O)[C@@H](NC(=O)[C@](C)(Cc1ccccc1)NC(=O)[C@H](C)NC(=O)[C@@H](NC(=O)[C@](C)(Cc1ccccc1)NC(=O)[C@H](CCC(=O)O)NC(=O)[C@](C)(CCCCN)NC(=O)[C@H](C)NC(=O)[C@H](C)NC(=O)[C@H](CCC(=O)O)NC(=O)CNC(=O)[C@H](CCC(=O)O)NC(=O)[C@H](CC(C)C)NC(=O)[C@](C)(Cc1ccccc1)NC(=O)[C@H](CO)NC(=O)[C@](C)(CO)NC(=O)[C@@H](NC(=O)[C@H](CC(=O)O)NC(=O)[C@H](CO)NC(=O)[C@@H](NC(=O)[C@](C)(Cc1ccccc1)NC(=O)[C@H](CO)NC(=O)CNC(=O)[C@H](CCC(=O)O)NC(=O)C(C)(C)NC(=O)[C@@H](N)Cc1c[nH]cn1)[C@@H](C)O)C(C)C)[C@@H](C)CC)C(C)C)C(C)C)C(=O)NCC(=O)NCC(N)=O)C(=O)O)C(=O)O)C(=O)O [compound 166] | 7.2 | 2.7 | 4.9 | ≥ 26 | ≥ 26 | ≥ 26 | ≥ 26 | 460 | 233 | 687 | – | – | – | – | – | – | – | –
2 | CCCCCCCCCCCC(=O)N[C@@H](CCC(=O)NCCOCCOCC(=O)NCCOCCOCC(=O)NCCCC[C@H](NC(=O)[C@H](CO)NC(=O)[C@](C)(CO)NC(=O)[C@@H](NC(=O)[C@H](CC(=O)O)NC(=O)[C@H](CO)NC(=O)[C@@H](NC(=O)[C@](C)(Cc1ccccc1)NC(=O)[C@H](CO)NC(=O)CNC(=O)[C@H](CCC(=O)O)NC(=O)C(C)(C)NC(=O)[C@@H](N)Cc1c[nH]cn1)[C@@H](C)O)C(C)C)C(=O)N[C@@H](CC(C)C)C(=O)N[C@@H](CCC(=O)O)C(=O)NCC(=O)N[C@@H](CCC(=O)O)C(=O)N[C@@H](C)C(=O)N[C@@H](C)C(=O)N[C@@](C)(CCCCN)C(=O)N[C@@H](CCCCNC(=O)COCCOCCNC(=O)COCCOCCNC(=O)CC[C@H](NC(=O)CCCCCCCCCCC)C(=O)O)C(=O)N[C@@H](Cc1ccccc1)C(=O)N[C@H](C(=O)N[C@@H](CCCCNC(=O)COCCOCCNC(=O)COCCOCCNC(=O)CC[C@H](NC(=O)CCCCCCCCCCC)C(=O)O)C(=O)N[C@@H](Cc1ccccc1)C(=O)N[C@H](C(=O)N[C@H](C(=O)N[C@@H](CCC(=O)O)C(=O)NCC(=O)NCC(N)=O)C(C)C)C(C)C)[C@@H](C)CC)C(=O)O [compound 450] (H-H[Aib]EGS[αMeF]TSDV[αMeS]SK([AEEA-AEEA-γGlu-Lauroyl])LEGEAA[αMeK]K([AEEA-AEEA-γGlu-Lauroyl])FIK([AEEA-AEEA-γGlu-Lauroyl])FVVEGG-NH2; N-terminus assumed) | – | – | – | – | – | – | – | – | – | – | 49 | 28 | 70 | 19.9 | 19.9 | 6810 | 6380 | 7240
3 | CCCCCCCCCCCC(=O)NCCCCCC(=O)NCCCCCC(=O)NCCCC[C@H](NC(=O)[C@@H](NC(=O)[C@@H](NC(=O)[C@](C)(Cc1ccccc1)NC(=O)[C@H](C)NC(=O)[C@@H](NC(=O)[C@](C)(Cc1ccccc1)NC(=O)[C@H](CCC(=O)O)NC(=O)[C@](C)(CCCCN)NC(=O)[C@H](C)NC(=O)[C@H](C)NC(=O)[C@H](CCC(=O)O)NC(=O)CNC(=O)[C@H](CCC(=O)O)NC(=O)[C@H](CC(C)C)NC(=O)[C@](C)(Cc1ccccc1)NC(=O)[C@H](CO)NC(=O)[C@](C)(CO)NC(=O)[C@@H](NC(=O)[C@H](CC(=O)O)NC(=O)[C@H](CO)NC(=O)[C@@H](NC(=O)[C@](C)(Cc1ccccc1)NC(=O)[C@H](CO)NC(=O)CNC(=O)[C@H](CCC(=O)O)NC(=O)C(C)(C)NC(=O)[C@@H](N)Cc1c[nH]cn1)[C@@H](C)O)C(C)C)[C@@H](C)CC)C(C)C)C(C)C)C(=O)NCC(=O)NCC(N)=O [compound 168] | 5.1 | 2.6 | 3.8 | ≥ 28 | ≥ 28 | ≥ 28 | ≥ 28 | 326 | 189 | 462 | – | – | – | – | – | – | – | –
